Reference: patent US20250388589A1, “TRICYCLIC HETEROCYCLIC DERIVATIVES, COMPOSITIONS AND USES THEREOF” (Danatlas Pharmaceuticals Co., Ltd., priority 2022, published 2025)

Experiments:
Kuramochi cell line = experiment: Cell Viability Assay (Cell Titer-Glo, 7 days); type: cell-based; details: 168 h, Kuramochi cells, 7 days incubation, read-out: PARG Cell viability (IC50)
How it was run: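 IC50 from a four-parameter fit of CellTiter-Glo luminescence, scaled between DMSO-treated (high) and medium-only (low) wells. Kuramochi cells (400/well, RPMI/10% FBS) exposed 7 days at 37 °C to 9 concentrations, 3-fold steps, in duplicate.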

[1] = molecular target: hPARG (C-terminal His6-tag) (Homo sapiens (Human), UniProt Q86W56); experiment: PARG Enzymatic Activity Assay (HTRF); type: biochemical; details: hPARG 65 pM final, biotinylated-NAD ribosylated PARP1 8 nM final
Sequence of hPARG (C-terminal His6-tag) (Q86W56 whole entry): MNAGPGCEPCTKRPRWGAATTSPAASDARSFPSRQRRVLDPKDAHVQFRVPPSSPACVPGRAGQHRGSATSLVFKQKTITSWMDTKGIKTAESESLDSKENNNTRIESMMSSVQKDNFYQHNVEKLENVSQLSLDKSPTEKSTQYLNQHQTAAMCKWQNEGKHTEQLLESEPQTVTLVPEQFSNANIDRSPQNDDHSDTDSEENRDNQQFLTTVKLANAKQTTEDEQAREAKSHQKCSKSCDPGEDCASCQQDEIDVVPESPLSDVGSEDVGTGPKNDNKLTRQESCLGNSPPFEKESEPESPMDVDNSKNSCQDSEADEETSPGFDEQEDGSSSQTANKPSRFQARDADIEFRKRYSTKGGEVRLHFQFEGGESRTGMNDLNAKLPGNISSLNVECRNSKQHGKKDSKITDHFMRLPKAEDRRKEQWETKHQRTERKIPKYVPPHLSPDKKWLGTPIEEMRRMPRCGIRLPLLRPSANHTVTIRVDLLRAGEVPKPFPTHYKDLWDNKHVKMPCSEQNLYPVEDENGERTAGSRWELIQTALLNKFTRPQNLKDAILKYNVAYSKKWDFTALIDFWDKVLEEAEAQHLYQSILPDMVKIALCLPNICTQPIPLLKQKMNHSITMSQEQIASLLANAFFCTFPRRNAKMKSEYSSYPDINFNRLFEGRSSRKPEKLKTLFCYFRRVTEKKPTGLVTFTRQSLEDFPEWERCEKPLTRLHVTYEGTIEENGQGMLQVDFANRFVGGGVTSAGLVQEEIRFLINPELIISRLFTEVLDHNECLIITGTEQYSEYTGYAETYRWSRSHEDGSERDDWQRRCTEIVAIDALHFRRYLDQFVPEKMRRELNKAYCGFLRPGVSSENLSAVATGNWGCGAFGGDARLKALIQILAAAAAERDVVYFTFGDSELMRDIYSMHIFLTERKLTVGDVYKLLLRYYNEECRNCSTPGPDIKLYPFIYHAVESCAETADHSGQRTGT
How it was run: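 Readout is time-resolved fluorescence at 620 and 665 nm after 60 min RT detection with streptavidin-Eu cryptate and anti-6HIS-XL665; IC50 by 4-parameter fit, 1% DMSO and no-enzyme controls. Reaction: 8 nM final ribosylated PARP1 substrate for 10 min RT, following 60 min RT enzyme (65 pM)–compound preincubation in Tris pH 7.4 buffer with EDTA, DTT, KCl.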

IC50 [1] | SMILES | IC50 (Kuramochi cell line)
< 100 nM | CO[C@@H]1CCN(C(=O)N2CCC(c3ncnc4c3c3ccc(S(=O)(=O)NC5(C#N)CC5)cc3n4-c3nnc(C(F)F)s3)CC2)C1 [Example 135, (R)-N-(1-Cyanocyclo-propyl)-9-(5-(difluoromethyl)-1,3,4-thiadiazol-2-yl)-4-(1-(3-methoxypyrrolidine-1-carbonyl)piperidin-4-yl)-9H-pyrimido [4,5-b]indole-7-sulfonamide] | < 100 nM
< 100 nM | CC(=O)N1CCC(c2ncnc3c2c2ccc(S(=O)(=O)NC4(C#N)CC4)cc2n3-c2nnc(C(F)F)s2)CC1 [Example 105, 4-(1-acetylpiperidin-4-yl)-N-(1-cyanocyclopropyl)-9-(5-(difluoromethyl)-1,3,4-thiadiazol-2-yl)-9H-pyrimido[4,5-b]indole-7-sulfonamide] | < 100 nM
< 100 nM | CN(C)C(=O)N1CC=C(c2ncnc3c2c2ccc(S(=O)(=O)NC4(C)CC4)cc2n3-c2nnc(C(F)F)s2)CC1 [Example 152, 4-(9-(5-(Difluoromethyl)-1,3,4-thiadiazol-2-yl)-7-(N-(1-methylcyclopropyl)sulfamoyl)-9H-pyrimido[4,5-b]indol-4-yl)-N,N-dimethyl-3,6-dihydropyridine-1(2H)-carboxamide] | < 100 nM
100 to 1000 nM | Cc1nc(N2CCN3CCOC[C@H]3C2)c2c3ccc(S(=O)(=O)NC4(C#N)CC4)cc3n(-c3nnc(C(F)F)s3)c2n1 [Example 192, (R)—N-(1-Cyanocyclopropyl)-9-(5-(difluoromethyl)-1,3,4-thiadiazol-2-yl)-4-(hexahydropyrazino[2,1-c][1,4]oxazin-8(1H)-yl)-2-methyl-9H-pyrimido[4,5-b]indole-7-sulfonamide] | < 100 nM
< 100 nM | CO[C@@H](C)C(=O)N1CCC(c2ncnc3c2c2ccc(S(=O)(=O)NC4(C)CC4)cc2n3-c2nnc(C(F)F)s2)CC1 [Example 96, (S)-9-(5-(Difluoromethyl)-1,3,4-thiadiazol-2-yl)-4-(1-(2-methoxypropanoyl)piperidin-4-yl)-N-(1-methylcyclopropyl)-9H-pyrimido[4,5-b]indole-7-sulfonamide] | < 100 nM
< 100 nM | N#CC1(NS(=O)(=O)c2ccc3c4c(N5CCC(N6CCOCC6)[C@@H](F)C5)ncnc4n(-c4nnc(C(F)F)s4)c3c2)CC1 (stereo partly drawn) [Example 209, N-(1-Cyanocyclopropyl)-9-(5-(difluoromethyl)-1,3,4-thiadiazol-2-yl)-4-((3S)-3-fluoro-4-morpholinopiperidin-1-yl)-9H-pyrimido[4,5-b]indole-7-sulfonamide] | < 100 nM
< 100 nM | N#CC1(NS(=O)(=O)c2ccc3c4c(N5CCC(O)(C(F)(F)F)CC5)ncnc4n(-c4nnc(C(F)F)s4)c3c2)CC1 [Example 191, N-(1-Cyanocyclopropyl)-9-(5-(difluoromethyl)-1,3,4-thiadiazol-2-yl)-4-(4-hydroxy-4-(trifluoromethyl)piperidin-1-yl)-9H-pyrimido [4,5-b]indole-7-sulfonamide] | < 100 nM

Further lines, the molecule ahead of its results:

SMILES | IC50 [1] | IC50 (Kuramochi cell line)
Cn1ccnc1N1CCN(c2ncnc3c2c2ccc(S(=O)(=O)NC4(C#N)CC4)cc2n3-c2nnc(C(F)F)s2)CC1 [Example 22, N-(1-Cyanocyclopropyl)-9-(5-(difluoromethyl)-1,3,4-thiadiazol-2-yl)-4-(4-(1-methyl-JH-imidazol-2-yl)piperazin-1-yl)-9H-pyrimido[4,5-b]indole-7-sulfonamide] | < 100 nM | 100 to 1000 nM
CCN(C)C(=O)N1CCN(c2ncnc3c2c2ccc(S(=O)(=O)NC4(C#N)CC4)cc2n3-c2nnc(C(F)F)s2)CC1 [Example 7, 4-(7-(N-(1-Cyanocyclopropyl)sulfamoyl)-9-(5-(difluoromethyl)-1,3,4-thiadiazol-2-yl)-9H-pyrimido[4,5-b]indol-4-yl)-N-ethyl-N-methylpiperazine-1-carboxamide] | < 100 nM | < 100 nM
CC(C)C(=O)N1CCN(c2ncnc3c2c2ccc(S(=O)(=O)NC4(C#N)CC4)cc2n3-c2nnc(C(F)F)s2)C[C@@H]1C [Example 61, (S)-N-(1-cyanocyclopropyl)-9-(5-(difluoromethyl)-1,3,4-thiadiazol-2-yl)-4-(4-isobutyryl-3-methylpiperazin-1-yl)-9H-pyrimido[4,5-b]indole-7-sulfonamide] | < 100 nM | < 100 nM
C[C@H]1CN(c2ncnc3c2c2ccc(S(=O)(=O)NC4(C#N)CC4)cc2n3-c2nnc(C(F)F)s2)CCN1C(=O)N(C)C [Example 37, (S)-4-(7-(N-(1-Cyanocyclopropyl)sulfamoyl)-9-(5-(difluoromethyl)-1,3,4-thiadiazol-2-yl)-9H-pyrimido[4,5-b]indol-4-yl)-N,N,2-trimethylpiperazine-1-carboxamide] | < 100 nM | < 100 nM
CC(C)C(=O)N1[C@H](C)CN(c2ncnc3c2c2ccc(S(=O)(=O)NC4(C#N)CC4)cc2n3-c2nnc(C(F)F)s2)C[C@@H]1C [Example 62, N-(1-Cyanocyclopropyl)-9-(5-(difluoromethyl)-1,3,4-thiadiazol-2-yl)-4-((3S,5R)-4-isobutyryl-3,5-dimethylpiperazin-1-yl)-9H-pyrimido[4,5-b]indole-7-sulfonamide] | < 100 nM | < 100 nM
CC1(NS(=O)(=O)c2ccc3c4c(C5CCNCC5)ncnc4n(-c4nnc(C(F)F)s4)c3c2)CC1 [Example 93, 9-(5-(Difluoromethyl)-1,3,4-thiadiazol-2-yl)-N-(1-methylcyclopropyl)-4-(piperidin-4-yl)-9H-pyrimido[4,5-b]indole-7-sulfonamide] | < 100 nM | < 100 nM
Cc1ccc(C(=O)N2CCN(c3ncnc4c3c3ccc(S(=O)(=O)NC5(C#N)CC5)cc3n4-c3nnc(C(F)F)s3)CC2)cn1 [Example 27, N-(1-Cyanocyclopropyl)-9-(5-(difluoromethyl)-1,3,4-thiadiazol-2-yl)-4-(4-(6-methylnicotinoyl)piperazin-1-yl)-9H-pyrimido[4,5-b]indole-7-sulfonamide] | < 100 nM | 100 to 1000 nM
CC(C)(C)C(=O)N1CCN(c2ncnc3c2c2ccc(S(=O)(=O)NC4(C#N)CC4)cc2n3-c2nnc(C(F)F)s2)CC1 [Example 3, N-(1-Cyanocyclopropyl)-9-(5-(difluoromethyl)-1,3,4-thiadiazol-2-yl)-4-(4-pivaloylpiperazin-1-yl)-9H-pyrimido[4,5-b]indole-7-sulfonamide] | < 100 nM | < 100 nM
CC(C)C(=O)N1CC2(C1)CN(c1ncnc3c1c1ccc(S(=O)(=O)NC4(C#N)CC4)cc1n3-c1nnc(C(F)F)s1)C2 [Example 23, N-(1-Cyanocyclopropyl)-9-[5-(difluoromethyl)-1,3,4-thiadiazol-2-yl]-4-[2-(2-methylpropanoyl)-2,6-diazaspiro[3.3]heptan-6-yl]pyrimido[4,5-b]indole-7-sulfonamide] | < 100 nM | 100 to 1000 nM
COC1CCN(c2ncnc3c2c2ccc(S(=O)(=O)NC4(C#N)CC4)cc2n3-c2nnc(C(F)F)s2)CC1 [Example 44, N-(1-Cyanocyclopropyl)-9-(5-(difluoromethyl)-1,3,4-thiadiazol-2-yl)-4-(4-methoxypiperidin-1-yl)-9H-pyrimido[4,5-b]indole-7-sulfonamide] | < 100 nM | < 100 nM
CO[C@H](C)C(=O)N1CCC(c2ncnc3c2c2ccc(S(=O)(=O)NC4(C)CC4)cc2n3-c2nnc(C(F)F)s2)CC1 [Example 95, (R)-9-(5-(Difluoromethyl)-1,3,4-thiadiazol-2-yl)-4-(1-(2-methoxypropanoyl)piperidin-4-yl)-N-(1-methylcyclopropyl)-9H-pyrimido[4,5-b]indole-7-sulfonamide] | < 100 nM | < 100 nM
N#CC1(NS(=O)(=O)c2ccc3c4c(N5CCN(CC6CC6)C(=O)C5)ncnc4n(-c4nnc(C(F)F)s4)c3c2)CC1 [Example 40, N-(1-Cyanocyclopropyl)-4-(4-(cyclopropylmethyl)-3-oxopiperazin-1-yl)-9-(5-(difluoromethyl)-1,3,4-thiadiazol-2-yl)-9H-pyrimido[4,5-b]indole-7-sulfonamide] | < 100 nM | < 100 nM
CC(C)C(=O)N1C[C@@H](C)N(c2ncnc3c2c2ccc(S(=O)(=O)NC4(C#N)CC4)cc2n3-c2nnc(C(F)F)s2)C[C@@H]1C [Example 33, N-(1-Cyanocyclopropyl)-9-(5-(difluoromethyl)-1,3,4-thiadiazol-2-yl)-4-((2R,5S)-4-isobutyryl-2,5-dimethylpiperazin-1-yl)-9H-pyrimido[4,5-b]indole-7-sulfonamide] | < 100 nM | < 100 nM
N#CC1(NS(=O)(=O)c2ccc3c4c(N5CCN(C(=O)C6(F)CCC6)CC5)ncnc4n(-c4nnc(C(F)F)s4)c3c2)CC1 [Example 68, N-(1-Cyanocyclopropyl)-9-(5-(difluoromethyl)-1,3,4-thiadiazol-2-yl)-4-(4-(1-fluorocyclobutane-1-carbonyl)piperazin-1-yl)-9H-pyrimido[4,5-b]indole-7-sulfonamide] | < 100 nM | 100 to 1000 nM
CN1CC(C(=O)N2CCN(c3ncnc4c3c3ccc(S(=O)(=O)NC5(C#N)CC5)cc3n4-c3nnc(C(F)F)s3)CC2)C1 [Example 65, N-(1-Cyanocyclopropyl)-9-(5-(difluoromethyl)-1,3,4-thiadiazol-2-yl)-4-(4-(1-methylazetidine-3-carbonyl)piperazin-1-yl)-9H-pyrimido [4,5-b]indole-7-sulfonamide] | < 100 nM | 100 to 1000 nM
